≈ marks a conversion by molar mass, not a printed value.
How the values were obtained:
Escherichia coli [1] = test: Antimicrobial activity against Escherichia coli expressing beta-lactamase KPC-2 by CLSI broth microdilution method; format: functional
Escherichia coli [2] = test: microbe, parasite or virus in culture
Description: Antimicrobial activity against Escherichia coli expressing beta-lactamase TEM-10 by CLSI broth microdilution method

Escherichia coli [3] = test: microbe, parasite or virus in culture; remark: listed apart in the source
Description: Antimicrobial activity against Escherichia coli expressing beta-lactamase SHV-12 by CLSI broth microdilution method

Escherichia coli [4] = test: microbe, parasite or virus in culture; remark: listed apart in the source
Description: Antimicrobial activity against wild type Escherichia coli by CLSI broth microdilution method

[5] = Chemical stability in pH 7.4 potassium phosphate buffer assessed as half life for compound hydrolysis at 37 degC by UPLC and mass spectrometry; format: physicochemical
Escherichia coli [6] = test: microbe, parasite or virus in culture; remark: listed apart in the source
Description: Antimicrobial activity against Escherichia coli expressing beta-lactamase CTXM-15 by CLSI broth microdilution method

Escherichia coli [7] = test: microbe, parasite or virus in culture; remark: listed apart in the source
Description: Antimicrobial activity against Escherichia coli expressing beta-lactamase CMY-2 by CLSI broth microdilution method

Escherichia coli [8] = test: microbe, parasite or virus in culture; remark: listed apart in the source
Description: Antimicrobial activity against Escherichia coli expressing beta-lactamase AmpC by CLSI broth microdilution method

Escherichia coli [9] = test: Antimicrobial activity against Escherichia coli expressing beta-lactamase NDM-1 by CLSI broth microdilution method; format: functional

MIC (Escherichia coli [1])	MIC (Escherichia coli [2])	MIC (Escherichia coli [3])	MIC (Escherichia coli [4])	half-life [5]	MIC (Escherichia coli [6])	MIC (Escherichia coli [7])	MIC (Escherichia coli [8])	MIC (Escherichia coli [9])	Compound
4 µg/mL (≈ 7.27 µM)	> 64 µg/mL	2 µg/mL (≈ 3.63 µM)	2 µg/mL (≈ 3.63 µM)	> 37 h	1 µg/mL (≈ 1.82 µM)	4 µg/mL (≈ 7.27 µM)	2 µg/mL (≈ 3.63 µM)	–	CC(C)(O/N=C(\C(=O)N[C@@H]1C(=O)N(S(=O)(=O)O)[C@@H]1CN1C[C@H](CO)OC1=O)c1csc(N)n1)C(=O)O (stereo in doubt)
2 µg/mL (≈ 3.86 µM)	4 µg/mL (≈ 7.71 µM)	2 µg/mL (≈ 3.86 µM)	1 µg/mL (≈ 1.93 µM)	> 1000 h	2 µg/mL (≈ 3.86 µM)	–	16 µg/mL (≈ 30.9 µM)	1 µg/mL (≈ 1.93 µM)	CC(C)(O/N=C(\C(=O)N[C@@H]1C(=O)N(S(=O)(=O)O)[C@@H]1CN1CCCC1=O)c1csc(N)n1)C(=O)O (stereo in doubt)
1 µg/mL (≈ 1.87 µM)	8 µg/mL (≈ 15 µM)	1 µg/mL (≈ 1.87 µM)	1 µg/mL (≈ 1.87 µM)	> 37 h	1 µg/mL (≈ 1.87 µM)	4 µg/mL (≈ 7.48 µM)	2 µg/mL (≈ 3.74 µM)	–	C[C@@H]1CN(C[C@@H]2[C@H](NC(=O)/C(=N\OC(C)(C)C(=O)O)c3csc(N)n3)C(=O)N2S(=O)(=O)O)C(=O)O1 (stereo in doubt)
4 µg/mL (≈ 7.88 µM)	2 µg/mL (≈ 3.94 µM)	8 µg/mL (≈ 15.8 µM)	0.25 µg/mL (≈ 0.493 µM)	149 h	0.25 µg/mL (≈ 0.493 µM)	–	0.5 µg/mL (≈ 0.985 µM)	0.125 µg/mL (≈ 0.246 µM)	CC(C)(O/N=C(\C(=O)N[C@@H]1C(=O)N(S(=O)(=O)O)[C@@H]1CNC(=O)CN)c1csc(N)n1)C(=O)O (stereo in doubt)
0.5 µg/mL (≈ 0.872 µM)	1 µg/mL (≈ 1.74 µM)	1 µg/mL (≈ 1.74 µM)	0.25 µg/mL (≈ 0.436 µM)	> 37 h	0.25 µg/mL (≈ 0.436 µM)	0.5 µg/mL (≈ 0.872 µM)	1 µg/mL (≈ 1.74 µM)	–	CC(C)(O/N=C(\C(=O)N[C@@H]1C(=O)N(S(=O)(=O)O)[C@@H]1Cn1cc(CNC(=N)N)nn1)c1csc(N)n1)C(=O)O (stereo in doubt)
1 µg/mL (≈ 2.05 µM)	1 µg/mL (≈ 2.05 µM)	2 µg/mL (≈ 4.09 µM)	1 µg/mL (≈ 2.05 µM)	–	0.5 µg/mL (≈ 1.02 µM)	16 µg/mL (≈ 32.8 µM)	4 µg/mL (≈ 8.19 µM)	–	C[C@@H](O/N=C(\C(=O)N[C@@H]1C(=O)N(S(=O)(=O)O)[C@@H]1Cn1cncn1)c1csc(N)n1)C(=O)O (stereo in doubt)
1 µg/mL (≈ 1.92 µM)	4 µg/mL (≈ 7.7 µM)	1 µg/mL (≈ 1.92 µM)	0.5 µg/mL (≈ 0.962 µM)	> 1000 h	1 µg/mL (≈ 1.92 µM)	–	2 µg/mL (≈ 3.85 µM)	1 µg/mL (≈ 1.92 µM)	CC(C)(O/N=C(\C(=O)N[C@@H]1C(=O)N(S(=O)(=O)O)[C@@H]1CN1CCNC1=O)c1csc(N)n1)C(=O)O (stereo in doubt)
8 µg/mL (≈ 15.3 µM)	–	4 µg/mL (≈ 7.67 µM)	4 µg/mL (≈ 7.67 µM)	212 h	4 µg/mL (≈ 7.67 µM)	–	16 µg/mL (≈ 30.7 µM)	4 µg/mL (≈ 7.67 µM)	CN(C[C@@H]1[C@H](NC(=O)/C(=N\OC(C)(C)C(=O)O)c2csc(N)n2)C(=O)N1S(=O)(=O)O)C(=O)CN (stereo in doubt)
4 µg/mL (≈ 7.51 µM)	8 µg/mL (≈ 15 µM)	16 µg/mL (≈ 30 µM)	0.5 µg/mL (≈ 0.939 µM)	> 37 h	1 µg/mL (≈ 1.88 µM)	4 µg/mL (≈ 7.51 µM)	4 µg/mL (≈ 7.51 µM)	–	CC(C)(O/N=C(\C(=O)N[C@@H]1C(=O)N(S(=O)(=O)O)[C@@H]1Cn1cc(CO)nn1)c1csc(N)n1)C(=O)O (stereo in doubt)
1 µg/mL (≈ 1.82 µM)	8 µg/mL (≈ 14.6 µM)	1 µg/mL (≈ 1.82 µM)	1 µg/mL (≈ 1.82 µM)	> 37 h	1 µg/mL (≈ 1.82 µM)	2 µg/mL (≈ 3.64 µM)	1 µg/mL (≈ 1.82 µM)	–	CC(C)(O/N=C(\C(=O)N[C@@H]1C(=O)N(S(=O)(=O)O)[C@@H]1CN1C[C@H](CN)OC1=O)c1csc(N)n1)C(=O)O (stereo in doubt)
0.5 µg/mL (≈ 1.05 µM)	1 µg/mL (≈ 2.11 µM)	16 µg/mL (≈ 33.7 µM)	0.125 µg/mL (≈ 0.263 µM)	–	0.25 µg/mL (≈ 0.527 µM)	8 µg/mL (≈ 16.9 µM)	16 µg/mL (≈ 33.7 µM)	–	Nc1nc(/C(=N/OCC(=O)O)C(=O)N[C@@H]2C(=O)N(S(=O)(=O)O)[C@@H]2Cn2cncn2)cs1 (stereo in doubt)
8 µg/mL (≈ 15.5 µM)	8 µg/mL (≈ 15.5 µM)	8 µg/mL (≈ 15.5 µM)	2 µg/mL (≈ 3.86 µM)	–	1 µg/mL (≈ 1.93 µM)	–	8 µg/mL (≈ 15.5 µM)	2 µg/mL (≈ 3.86 µM)	Cc1nnn(C[C@@H]2[C@H](NC(=O)/C(=N\OC(C)(C)C(=O)O)c3csc(N)n3)C(=O)N2S(=O)(=O)O)n1 (stereo in doubt)
1 µg/mL (≈ 1.69 µM)	2 µg/mL (≈ 3.38 µM)	0.25 µg/mL (≈ 0.423 µM)	0.25 µg/mL (≈ 0.423 µM)	> 37 h	0.125 µg/mL (≈ 0.211 µM)	0.25 µg/mL (≈ 0.423 µM)	0.25 µg/mL (≈ 0.423 µM)	–	CC(C)(O/N=C(\C(=O)N[C@@H]1C(=O)N(S(=O)(=O)O)[C@@H]1CN1C[C@@H](CNC(=N)N)OC1=O)c1csc(N)n1)C(=O)O (stereo in doubt)
4 µg/mL (≈ 7.53 µM)	4 µg/mL (≈ 7.53 µM)	4 µg/mL (≈ 7.53 µM)	2 µg/mL (≈ 3.76 µM)	> 37 h	2 µg/mL (≈ 3.76 µM)	8 µg/mL (≈ 15.1 µM)	8 µg/mL (≈ 15.1 µM)	–	CC(C)(O/N=C(\C(=O)N[C@@H]1C(=O)N(S(=O)(=O)O)[C@@H]1Cn1ncnc1CN)c1csc(N)n1)C(=O)O (stereo in doubt)
–	–	–	–	46 h	–	–	–	–	C[C@@H](O)[C@H]1C(=O)N2C(C(=O)O)=C(SCCN=CN)C[C@H]12 [IMIPENEM ANHYDROUS]

— ChEMBL document CHEMBL4184210, “Optimization of novel monobactams with activity against carbapenem-resistant Enterobacteriaceae - Identification of LYS228” (Bioorg Med Chem Lett, 2018)
